Read-outs that look alike come from different tables or passages of the source.
Molecular target: T1, human DP2 (Homo sapiens, UniProt Q9Y5Y4)
T1 construct: expressed in transfected cells; membranes prepared
T1 sequence (Q9Y5Y4 1-395): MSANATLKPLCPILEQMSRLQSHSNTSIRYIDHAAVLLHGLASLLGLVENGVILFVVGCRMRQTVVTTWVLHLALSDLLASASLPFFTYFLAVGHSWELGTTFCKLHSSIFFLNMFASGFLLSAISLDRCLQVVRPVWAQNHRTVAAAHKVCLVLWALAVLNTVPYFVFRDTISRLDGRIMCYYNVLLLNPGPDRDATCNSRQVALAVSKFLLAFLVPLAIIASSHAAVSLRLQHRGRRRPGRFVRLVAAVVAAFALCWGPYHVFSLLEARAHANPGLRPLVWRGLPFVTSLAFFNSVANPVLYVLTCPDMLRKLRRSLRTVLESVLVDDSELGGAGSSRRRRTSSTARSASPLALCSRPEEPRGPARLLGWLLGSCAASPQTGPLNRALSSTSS
Assay: DP-2 binding inhibition assay (3H-PGD2, membranes of DP2-expressing K562 cells)
Procedure, shortened: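 Displacement of 3H-PGD2 was measured by filtration and scintillation counting after 60 min at room temperature, using membranes of DP2-transfected K562 cells in 0.1% BSA, 1% HSA or 4% HSA.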

[1] = 4% HSA, read-out: EC50 (nM) 4% HSA

Row | Compound | EC50 [1] [nM] | EC50 (0.1% BSA, read-out: EC50 (nM) 0.1% BSA) [nM]
1 | COc1ccc(-c2ccc(NC(=O)c3ccc(Oc4cc5c(cc4Cl)C(C(=O)O)CCO5)cc3)nc2)cn1 (stereo not drawn) [Example 73, Sodium 6-chloro-7-(4-(6′-methoxy-3,3′-bipyridin-6-ylcarbamoyl)phenoxy)chroman-4-carboxylate] | 959 | –
2 | COc1ccc(-c2ccc(NC(=O)c3ccc(Oc4cc5c(cc4Cl)C(C(=O)O)CCO5)cc3)nc2)c(OC)n1 (stereo not drawn) [Example 74, Sodium 6-chloro-7-(4-(2′,6′-dimethoxy-3,3′-bipyridin-6-ylcarbamoyl)phenoxy)chroman-4-carboxylate] | 794 | –
3 | O=C(Nc1ccc(-c2cccc(C(F)(F)F)c2)nc1)c1ccc(Oc2cc3c(cc2Cl)C(C(=O)O)CCO3)cc1 (stereo not drawn) [Example 75, 6-Chloro-7-(4-(6-(3-(trifluoromethyl)phenyl)pyridin-3-ylcarbamoyl)phenoxy)chroman-4-carboxylic acid] | 149 | –
4 | O=C(Nc1ccc(-c2ccc(C(F)(F)F)cc2)nc1)c1ccc(Oc2cc3c(cc2Cl)C(C(=O)O)CCO3)cc1 (stereo not drawn) [Example 76, Sodium 6-chloro-7-(4-(6-(4-(trifluoromethyl)phenyl)pyridin-3-ylcarbamoyl)phenoxy)chroman-4-carboxylate] | 101 | –
5 | CCOc1cccc(NC(=O)c2ccc(Oc3cc4c(cc3Cl)C(C(=O)O)CCO4)cc2)n1 (stereo not drawn) [Example 78, 6-Chloro-7-(4-(6-ethoxypyridin-2-ylcarbamoyl)phenoxy)chroman-4-carboxylic acid] | 740 | –
6 | O=C(Nc1cncc(-c2ccc(Cl)cc2)n1)c1ccc(Oc2cc3c(cc2Cl)C(C(=O)O)CCO3)cc1 (stereo not drawn) [Example 79, 6-chloro-7-(4-(6-(4-chlorophenyl)pyrazin-2-ylcarbamoyl)phenoxy)chroman-4-carboxylic acid] | 105 | –
7 | COc1nc(C(F)(F)F)ccc1CCNC(=O)c1ccc(Oc2cc3c(cc2Cl)C(C(=O)O)CCO3)cc1 (stereo not drawn) [Example 80, Sodium 6-chloro-7-(4-(2-(2-methoxy-6-(trifluoromethyl)pyridin-3-yl)ethylcarbamoyl)phenoxy)chroman-4-carboxylate] | 25.1 | –
8 | O=C(Nc1cccc(-c2ccc(F)c(F)c2)n1)c1ccc(Oc2cc3c(cc2Cl)C(C(=O)O)CCO3)cc1 (stereo not drawn) [Example 81, 6-Chloro-7-(4-(6-(3,4-difluorophenyl)pyridin-2-ylcarbamoyl)phenoxy)chroman-4-carboxylic acid] | 97.9 | –
9 | O=C(Nc1cccc(-c2ccc(F)cc2F)n1)c1ccc(Oc2cc3c(cc2Cl)C(C(=O)O)CCO3)cc1 (stereo not drawn) [Example 82, 6-Chloro-7-(4-(6-(2,4-difluorophenyl)pyridin-2-ylcarbamoyl)phenoxy)chroman-4-carboxylic acid] | 120 | –
10 | CSc1ccc(-c2cccc(NC(=O)c3ccc(Oc4cc5c(cc4Cl)C(C(=O)O)CCO5)cc3)n2)cc1 (stereo not drawn) [Example 83, 6-Chloro-7-(4-(6-(4-(methylthio)phenyl)pyridin-2-ylcarbamoyl)phenoxy)chroman-4-carboxylic acid] | 71.3 | –
11 | Cc1cc(-c2cccc(NC(=O)c3ccc(Oc4cc5c(cc4Cl)C(C(=O)O)CCO5)cc3)n2)ccc1F (stereo not drawn) [Example 84, 6-Chloro-7-(4-(6-(4-fluoro-3-methylphenyl)pyridin-2-ylcarbamoyl)phenoxy)chroman-4-carboxylic acid] | 144 | –
12 | CC(C)(C)c1ccc(-c2cccc(NC(=O)c3ccc(Oc4cc5c(cc4Cl)C(C(=O)O)CCO5)cc3)n2)cc1 (stereo not drawn) [Example 85, 7-(4-(6-(4-tert-Butylphenyl)pyridin-2-ylcarbamoyl)phenoxy)-6-chlorochroman-4-carboxylic acid] | 22.5 | –
13 | O=C(Nc1cccc(-c2ccc(Cl)c(F)c2)n1)c1ccc(Oc2cc3c(cc2Cl)C(C(=O)O)CCO3)cc1 (stereo not drawn) [Example 86, 6-Chloro-7-(4-(6-(4-chloro-3-fluorophenyl)pyridin-2-ylcarbamoyl)phenoxy)chroman-4-carboxylic acid] | 49.5 | –
14 | O=C(Nc1cccc(-c2ccc(Cl)cc2F)n1)c1ccc(Oc2cc3c(cc2Cl)C(C(=O)O)CCO3)cc1 (stereo not drawn) [Example 87, 6-chloro-7-(4-(6-(4-chloro-2-fluorophenyl)pyridin-2-ylcarbamoyl)phenoxy)chroman-4-carboxylic acid] | 41.4 | –
15 | Cc1ccc(-c2cccc(NC(=O)c3ccc(Oc4cc5c(cc4Cl)C(C(=O)O)CCO5)cc3)n2)cc1F (stereo not drawn) [Example 88, 6-Chloro-7-(4-(6-(3-fluoro-4-methylphenyl)pyridin-2-ylcarbamoyl)phenoxy)chroman-4-carboxylic acid] | 55.5 | –
16 | O=C(Nc1cccc(-c2cc(F)cc(F)c2)n1)c1ccc(Oc2cc3c(cc2Cl)C(C(=O)O)CCO3)cc1 (stereo not drawn) [Example 89, 6-chloro-7-(4-(6-(3,5-difluorophenyl)pyridin-2-ylcarbamoyl)phenoxy)chroman-4-carboxylic acid] | 251 | –
17 | O=C(Nc1cccc(-c2cccc(F)c2F)n1)c1ccc(Oc2cc3c(cc2Cl)C(C(=O)O)CCO3)cc1 (stereo not drawn) [Example 90, 6-chloro-7-(4-(6-(2,3-difluorophenyl)pyridin-2-ylcarbamoyl)phenoxy)chroman-4-carboxylic acid] | 166 | –
18 | CC(C)(C)Sc1cccc(NC(=O)c2ccc(Oc3cc4c(cc3Cl)C(C(=O)O)CCO4)cc2)n1 (stereo not drawn) [Example 91, 7-(4-(6-(tert-Butylthio)pyridin-2-ylcarbamoyl)phenoxy)-6-chlorochroman-4-carboxylic acid] | 897 | –

Other lines, results leading:

Row | EC50 [1] [nM] | EC50 (0.1% BSA, read-out: EC50 (nM) 0.1% BSA) [nM] | Compound
19 | 415 | – | O=C(Nc1cncc(-c2cccc(Cl)c2)n1)c1ccc(Oc2cc3c(cc2Cl)C(C(=O)O)CCO3)cc1 (stereo not drawn) [Example 92, 6-Chloro-7-(4-(6-(3-chlorophenyl)pyrazin-2-ylcarbamoyl)phenoxy)chroman-4-carboxylic acid]
20 | 80.5 | – | O=C(Nc1cncc(-c2ccc(C(F)(F)F)cc2)n1)c1ccc(Oc2cc3c(cc2Cl)C(C(=O)O)CCO3)cc1 (stereo not drawn) [Example 93, 6-Chloro-7-(4-(6-(4-(trifluoromethyl)phenyl)pyrazin-2-ylcarbamoyl)phenoxy)chroman-4-carboxylic acid]
21 | 208 | – | O=C(Nc1cncc(-c2cccc(C(F)(F)F)c2)n1)c1ccc(Oc2cc3c(cc2Cl)C(C(=O)O)CCO3)cc1 (stereo not drawn) [Example 94, 6-chloro-7-(4-(6-(3-(trifluoromethyl)phenyl)pyrazin-2-ylcarbamoyl)phenoxy)chroman-4-carboxylic acid]
22 | 365 | – | O=C(Nc1cnc(-c2ccc(Cl)cc2)cn1)c1ccc(Oc2cc3c(cc2Cl)C(C(=O)O)CCO3)cc1 (stereo not drawn) [Example 95, 6-Chloro-7-(4-(5-(4-chlorophenyl)pyrazin-2-ylcarbamoyl)phenoxy)chroman-4-carboxylic acid]
23 | 274 | – | O=C(Nc1cnc(-c2cccc(Cl)c2)cn1)c1ccc(Oc2cc3c(cc2Cl)C(C(=O)O)CCO3)cc1 (stereo not drawn) [Example 96, 6-Chloro-7-(4-(5-(3-chlorophenyl)pyrazin-2-ylcarbamoyl)phenoxy)chroman-4-carboxylic acid]
24 | 203 | – | O=C(Nc1ccc(-c2cccc(Cl)c2)nn1)c1ccc(Oc2cc3c(cc2Cl)C(C(=O)O)CCO3)cc1 (stereo not drawn) [Example 97, 6-Chloro-7-(4-(6-(3-chlorophenyl)pyridazin-3-ylcarbamoyl)phenoxy)chroman-4-carboxylic acid]
25 | 112 | 17.9 | O=C(Nc1ccc(-c2ccc(C(F)(F)F)cc2)nn1)c1ccc(Oc2cc3c(cc2Cl)C(C(=O)O)CCO3)cc1 (stereo not drawn) [Example 98, Sodium 6-chloro-7-(4-(6-(4-(trifluoromethyl)phenyl)pyridazin-3-ylcarbamoyl)phenoxy)chroman-4-carboxylate]
26 | 235 | – | O=C(Nc1ccc(-c2cccc(C(F)(F)F)c2)nn1)c1ccc(Oc2cc3c(cc2Cl)C(C(=O)O)CCO3)cc1 (stereo not drawn) [Example 99, Sodium 6-chloro-7-(4-(6-(3-(trifluoromethyl)phenyl)pyridazin-3-ylcarbamoyl)phenoxy)chroman-4-carboxylate]
27 | 46 | – | O=C(Nc1ccnc(-c2ccc(Cl)cc2)n1)c1ccc(Oc2cc3c(cc2Cl)C(C(=O)O)CCO3)cc1 (stereo not drawn) [Example 100, sodium 6-chloro-7-(4-(2-(4-chlorophenyl)pyrimidin-4-ylcarbamoyl)phenoxy)chroman-4-carboxylate]
28 | 998 | – | Cc1nc(NC(=O)c2ccc(Oc3cc4c(cc3Cl)C(C(=O)O)CCO4)cc2)cc(-c2ccc(Cl)cc2)n1 (stereo not drawn) [Example 101, Sodium 6-chloro-7-(4-(6-(4-chlorophenyl)-2-methylpyrimidin-4-ylcarbamoyl)phenoxy)chroman-4-carboxylate]
29 | 21.2 | – | Cc1cc(NC(=O)c2ccc(Oc3cc4c(cc3Cl)C(C(=O)O)CCO4)cc2)nc(-c2ccc(C(F)(F)F)cc2)n1 (stereo not drawn) [Example 102, Sodium 6-chloro-7-(4-(6-methyl-2-(4-(trifluoromethyl)phenyl)pyrimidin-4-ylcarbamoyl)phenoxy)chroman-4-carboxylate]
30 | 57.1 | – | O=C(Nc1cccc(-c2ccc(Cl)cc2Cl)n1)c1ccc(Oc2cc3c(cc2Cl)C(C(=O)O)CCO3)cc1 (stereo not drawn) [Example 103, Sodium 6-chloro-7-(4-(6-(2,4-dichlorophenyl)pyridin-2-ylcarbamoyl)phenoxy)chroman-4-carboxylate]
31 | 116 | – | COc1cc(Cl)ccc1-c1cccc(NC(=O)c2ccc(Oc3cc4c(cc3Cl)C(C(=O)O)CCO4)cc2)n1 (stereo not drawn) [Example 104, Sodium 6-chloro-7-(4-(6-(4-chloro-2-methoxyphenyl)pyridin-2-ylcarbamoyl)phenoxy)chroman-4-carboxylate]
32 | 133 | – | CC(C)Cc1cccc(NC(=O)c2ccc(Oc3cc4c(cc3Cl)C(C(=O)O)CCO4)cc2)n1 (stereo not drawn) [Example 105, 6-Chloro-7-(4-(6-isobutylpyridin-2-ylcarbamoyl)phenoxy)chroman-4-carboxylic acid]
